Each structure is given as a SMILES string. Residues, ends and D or L forms follow the SMILES beside them. *: point of attachment. Tos = Cc1ccc(S(=O)(=O)*)cc1

The term melting point denotes the temperature of the solid-liquid transition. `O=S(=O)(c1ccc(Cl)cc1)N1CCCC1c1ccc(Cl)cc1` (racemic) came in with a melting point of 159 °C.
The figure for `CC(C)(C)C(=O)C1CCCS1(=O)=O` (stereo unspecified) is 53 to 56 °C; for `COc1cc(Nc2nccc(Nc3ccc(N4CCN(C)CC4)cc3)n2)cc(OC)c1OC` it is 104 °C; for `O=c1cccc(-c2ccccc2)[nH]1` it is 200 °C.
In the case of `CN(C)C(=N)CCCCCCCCCCCCC(=N)N(C)C` it was 209 °C; in that of `CC(=O)N[C@@H](CSC(c1ccccc1)(c1ccccc1)c1ccccc1)C(=O)N1CCSC1`, 197 to 198 °C.
`CC1(C)CC(SCc2c(C(F)(F)F)nn(C(C)(C)C)c2Cl)=NO1` showed a melting point of 79 to 81 °C.
The figure for `O=C(CCCNc1c(C(=O)O)[nH]c2cc(Cl)cc(Cl)c12)c1ccccc1` is 254 to 256 °C; for `CC(Cl)C(=O)NOCc1ccccc1` (stereo unspecified) it is 70.1 to 72.8 °C.
The figure for `COc1c(C(=O)O)ccc2ccccc12` is 118 to 122 °C; for `CCOC(=O)c1cc(OCC)c(OC(C)C)cc1N` it is 91 to 93 °C; for `NNC(=O)c1ccnc2[nH]c(CCc3ccccc3)cc12` it is 233 to 234 °C.
As to `COc1nc2cc(Cl)c(C)c(NS(C)(=O)=O)c2nc1OC`, the melting point was in the range of 228 to 229 °C.
The figure for `CN(C)C1(c2ccccc2)CCC(C(=O)c2cc3ccccc3n2C)(N2CCCC2)CC1` (stereo unspecified) is 212 to 218 °C; for `CCCCCCCc1cnc(-c2ccc(OCC(F)CCCCCC)c(F)c2F)nc1` (stereo unspecified) it is 56 °C.
As to `COc1ccc(S(=O)(=O)NCc2ccc(-n3c(-c4cccnc4N)nc4cc(Br)cnc43)cc2)cc1`, the melting point fell in the range of 188 to 190 °C.
In the case of `Cc1ccc2c(=O)cc(C#N)oc2c1`, the melting point lay in the range of 155 to 156 °C.
In the case of `NC(=O)N1C(=O)C(=C(OC(=O)c2cccc(C(=O)O)c2)c2cccs2)c2cc(F)c(Cl)cc21` it was 244 to 248 °C.
In the case of `CCCCc1ccc(-c2ccc(CCc3ccc(C)cc3)cc2)c(F)c1` it was 41 °C; in that of `CCOC(=O)CCC(=O)NCc1ccc([N+](=O)[O-])cc1`, 104 to 106 °C.
The figure for `C=CCc1cc(C#N)ccc1O` is 70 °C.
Regarding `Cc1cccc(C(=O)C2CC2)c1N`, the melting point was determined as 64 °C.
In the case of `CN(C1=NC(=O)C(=O)S1)c1ccc(-c2ncn(-c3ccc(OC(F)(F)F)cc3)n2)cc1` it was 114 to 118 °C.
In the case of `N#Cc1ccc(Nn2cnnc2)cc1-c1ccco1`, the melting point fell in the range of 217 to 218 °C.
The figure for `O=C(CS(=O)Cc1cccnc1)C12CC3CC(CC(C3)C1)C2` (stereo unspecified) is 116 to 119 °C.
`Oc1cc2c(Cl)cc(Br)cc2cc1Br` registered a melting point of 156 to 158 °C.
As to `COC(C)(C)O[C@@H]1C(=O)N(C(=O)OC(C)(C)C)[C@@H]1c1ccccc1` (relative stereo), the melting point was in the range of 90 to 92 °C.
Turning to `C=CC(O)c1ccc([N+](=O)[O-])cc1` (stereo unspecified), the melting point worked out at 55 °C.
In the case of `COC(=O)c1ccnc(N2CCN(Cc3ccccn3)C2=O)c1` it was 100 to 102 °C.
In turn, `CCC1c2nc[nH]c2CCN1C(=O)NC` (stereo unspecified) had a melting point of 240 °C.
In the case of `CC(C)(C)c1cc(I)c(O)c(C=NO)c1` it was 154 to 156 °C.
As to `COc1ccc(S(=O)(=O)N(CC(N)=O)c2ccc(Cl)cc2Cc2ccccc2C(F)(F)F)cc1OC`, the melting point was 133 °C.
The figure for `CC(C)CC(NC(=O)C(Cc1c[nH]cn1)NC(=O)C(CC(=O)N1CCCCC1)Cc1cccc2ccccc12)C(O)C(=O)OC(C)C` (mixture of isomers) is 91 to 97 °C.
Compound `O=Cc1c(-c2ccccc2)nn2ccccc12` displayed a melting point of 221 to 222 °C.
In the case of `CCCCCCCCCC(C)NC(=O)C=C(C)c1cccc([N+](=O)[O-])c1` (stereo unspecified) it was 72.5 to 74 °C.
In the case of `COc1ccc(S(=O)(=O)N2C(=O)C(O[Si](C)(C)C)(c3ccccc3C(F)(F)F)c3cc(Cl)ccc32)c(OC)c1` (stereo unspecified) it was 144 to 145 °C.
In the case of `CN(CCc1ccccn1)C(=O)CCSc1cc(Cl)c(O)c(Cl)c1` it was 120 to 123 °C; in that of `CC(CN(C)C)CC(CNC(=O)N(CCCl)N=O)(c1ccccc1)c1ccccc1` (stereo unspecified), 105 to 107 °C.
Compound `Cc1[nH]c(-c2ccccc2)c(NC(=O)CN2C(=O)c3ccccc3C2=O)c1C(=O)c1ccccc1` returned a melting point of 288 to 290 °C.
In the case of `CCCC(C)(Br)C(=O)Nc1ccc(C(C)C)cc1` (stereo unspecified) it was 87.2 to 88.2 °C.
The figure for `CCOC(=O)/C=C/c1ccc(N2CCC3(CC2)OCCO3)cc1` is 115 to 116 °C; for `Cc1nc(N2CCN(Cc3ccccc3)C2=O)sc1C(=O)NCc1cccc(F)c1` it is 169 to 171 °C; for `NC(Cc1cnc2ccccc2c1)C(=O)O` (stereo unspecified) it is 241 to 243 °C.
In the case of `Nc1ccc(Sc2ccccc2)cc1` it was 99 °C; in that of `CCOC(=O)c1nnc(Cc2ccccc2Cl)n1C`, 87 to 88 °C; in that of `O=S(=O)(Nc1ccccc1O)c1ccc2ccccc2c1`, 136 °C.
`CCCN1C(=O)c2cscc2Nc2ccccc21` registered a melting point of 166 to 167 °C.
In the case of `CCNc1nc2ccc(CCc3nc4cc(C)ccn4c3C)cc2s1` it was 165 to 166 °C; in that of `C=CCNC(=O)C=Cc1cccc(F)c1`, 84.5 to 87 °C.
As to `COC(=O)c1nc(NC(C)=O)ccc1Oc1cc(OC)cc(OC)n1`, the melting point was 128 to 130 °C.
The figure for `Cc1oc(-c2ccccc2)nc1C(C)O` (stereo unspecified) is 101 to 102 °C; for `N#CCCNC(=O)c1cccc(-c2ccc3c(c2)C(Oc2ccc(Cl)cc2Cl)CCC3)c1` (stereo unspecified) it is 150 to 151 °C; for `COc1ccc(Cn2c(=O)[nH]c3cc([N+](=O)[O-])ccc3c2=O)cc1` it is 244 to 246 °C.
The figure for `CCN(CC)C(=O)COc1cccc(-n2nc(-c3ccc(F)cc3)c3cccnc32)c1` is 102 to 105 °C.
Compound `Cc1cccc(-c2[nH]c(C(C)C)nc2-c2cccc(-c3ccncc3)c2)n1` registered a melting point of 84 to 86 °C.
The figure for `CC1(C)OC(/C=C/c2ccc(Br)cc2)=CC1=O` is 109 to 110 °C.
The figure for `CC1c2ccccc2-c2sc(Br)cc2N1S(=O)(=O)c1ccc(O)cc1` (stereo unspecified) is 209 to 211 °C.
For the compound `O=C(OCCc1ccc(OCc2ccc(Cl)cc2)cc1)c1cccnc1`, the melting point lay in the range of 109 to 110 °C.
On to `CCCCNc1ccc(-c2nc(C(=O)Nc3nccs3)c(-c3cccc(OC)c3)[nH]2)cc1`, for which the melting point is 228 to 231 °C.
As to `NS(=O)(=O)c1ccc(NC(=O)CCl)c(Cl)c1`, the melting point fell in the range of 162 to 164 °C.
Compound `CCN(CC)C(=O)n1ccc(Sc2c(C)cccc2Cl)n1` showed a melting point of 57 to 58 °C.
The compound `Cc1c(C(=O)NC(C)(C)CO)cccc1[N+](=O)[O-]` returned a melting point of 144 to 145 °C.
In the case of `Cc1ccc2c(c1)Oc1ncc(N)cc1C(=O)N2C` it was 191 to 193 °C.
In the case of `Nc1nc2ccccc2c2c1ncn2CCSc1ccccc1` it was 233 to 235 °C.
`COC(=O)Oc1c(C(=O)c2ccc(Cl)cc2Cl)c(C)nn1C` showed a melting point of 86 to 88 °C.
The figure for `COCCc1c[nH]c(=O)[nH]c1=O` is 232 to 234 °C; for `O=C(O)CCC(=O)c1cccc([N+](=O)[O-])c1` it is 162 to 164 °C.
In the case of `O=C(c1ccc2c(c1)Cc1ccccc1-2)N1Cc2cccn2Cc2ccccc21` it was 202 to 204 °C; in that of `O=Cc1cc2ccsc2s1`, 43 to 45 °C.
`COc1cc2c(cc1O)/C(=N/OCc1ccc([N+](=O)[O-])cc1)CC2` registered a melting point of 146 to 149 °C.
In the case of `CC(C)(C)C(=O)Nc1nc2[nH]c3cccc(Cl)c3c2c(=O)[nH]1` it was 186 to 190 °C; in that of `O=[N+]([O-])c1ccc(NS(=O)(=O)c2cccc3ccccc23)cc1`, 210 to 215 °C; in that of `O[C@H]1C[C@H]2CN(C3=Nc4cc(Cl)ccc4Sc4ccccc43)CCN2C1`, 58 to 60 °C.
The figure for `C=CCN(CC=C)c1nc(NC(=O)OCC(C)C)n2oc(=O)nc2n1` is 161 to 163 °C.
The figure for `COc1ccc(-c2ccc3c(C(=O)N(C)C)c(OC)ccc3c2)cc1` is 187 to 188 °C; for `CCCC1=C(C(=O)OCC)C(c2cc(OC)ccc2OC)c2c[nH]nc2N1` (stereo unspecified) it is 169 to 170 °C; for `CCOCCNCCOc1ccc(NC(=O)c2ccccc2NS(C)(=O)=O)cc1` it is 171 to 172 °C.
For `CC1(C)CC(=O)c2c(Oc3ccccc3)sc(-c3cc[nH]n3)c2C1`, the melting point lay in the range of 232 to 234 °C.
In turn, `Oc1ccc2c(c1)OCC(c1cccc(C(F)(F)F)c1)C2c1ccc(OCCN2CCCCC2)cc1` (stereo unspecified) gave a melting point of 118 to 119 °C.
Turning to `CN(C)CC1CCc2cc(OCc3ccc(NC(=O)c4ccccc4)cc3)ccc2C1` (stereo unspecified), the melting point lay in the range of 128 to 133 °C.
`Cc1ccc(S(=O)(=O)N2CCC[C@H]2C(=O)N[C@@H](CC(=O)O)C(=O)O)cc1` (Tos-Pro-Asp-OH) returned a melting point of 153 to 155 °C.
Turning to `Clc1nc(Cl)nc(-c2ccccc2)n1`, the melting point fell in the range of 118 to 120 °C.
In turn, `O=C1CC2(CCCCC2Cc2ccccc2)S(=O)(=O)CCN1` (stereo unspecified) had a melting point of 130 to 135 °C.
The figure for `COc1ccc2oc3ccc(Br)cc3c2c1C(=O)Nc1ccncc1` is 270 to 273 °C; for `O=[N+]([O-])c1ccc(CCN2CCN(c3ccc([N+](=O)[O-])cc3)CC2)cc1` it is 143 to 145 °C.
In the case of `Cc1ccc(C(CCCOC(=O)Nc2ccccc2)=NNC(N)=S)cc1` it was 170 to 173 °C.
The compound `CCCCc1csc2ccc3[nH]c4c(c3c12)CN(C(C)C)CC4` gave a melting point of 157 to 158 °C.
`CN(C)CCN1C(=O)C(NC(=O)c2ccc(NS(C)(=O)=O)cc2)C(C)(C)SC1=S` (stereo unspecified) gave a melting point of 158 to 159 °C.
`CC(C)(O)CCc1cc(F)c2ncc(C(=O)NCc3ccc(Cl)cc3)c(O)c2c1` displayed a melting point of 219 to 222 °C.
In turn, `COC(=O)c1ccc(O)c(C(=O)CC(=O)C=Cc2ccccc2)c1` registered a melting point of 138 to 140 °C.
The figure for `CN1C(=O)CCC2(C)c3ccc(-c4cccc(F)c4)cc3CCC12` (single isomer, unassigned; (+)) is 116 to 120 °C.
